The NIST ThermoML archive (doi:10.1016/j.jct.2017.06.006)

Experiment: mn = molality of the nth substance listed, in mol/kg
Conditions: 100 kPa, Liquid, Vibrating tube method

N[C@@H](Cc1ccccc1)C(=O)O [L-phenylalanine] + O
mass density [kg/m3]
Conditions | m1 = 0.0102 | m1 = 0.0203 | m1 = 0.0293 | m1 = 0.0398 | m1 = 0.0509 | m1 = 0.0606 | m1 = 0.061 | m1 = 0.0736 | m1 = 0.0915 | m1 = 0.1028
283.15 K | 1000.19 | 1000.64 | 1001.05 | 1001.53 | 1002.02 | 1002.47 | 1002.49 | 1003.05 | 1003.87 | 1004.36
288.15 K | 999.59 | 1000.04 | 1000.44 | 1000.91 | 1001.39 | 1001.83 | 1001.85 | 1002.4 | 1003.2 | 1003.69
293.15 K | 998.69 | 999.13 | 999.52 | 999.98 | 1000.46 | 1000.9 | 1000.91 | 1001.45 | 1002.24 | 1002.73
298.15 K | 997.52 | 997.95 | 998.35 | 998.8 | 999.27 | 999.7 | 999.71 | 1000.25 | 1001.03 | 1001.5
303.15 K | 996.12 | 996.54 | 996.93 | 997.38 | 997.85 | 998.27 | 998.28 | 998.81 | 999.58 | 1000.05

O [water] + CCCCn1cc[n+](C)c1C.[Br-]
Conditions | mass density [kg/m3]
283.15 K, m2 = 0 | 999.72

O [water] + N[C@@H](Cc1ccccc1)C(=O)O
Conditions | mass density [kg/m3]
283.15 K, m2 = 0 | 999.72

CCCCn1cc[n+](C)c1C.[Br-] [1-butyl-2,3-dimethylimidazolium bromide] + O
m1 = 0.1
Conditions | mass density [kg/m3]
283.15 K | 1004.75
288.15 K | 1004.08
293.15 K | 1003.12
298.15 K | 1001.89
303.15 K | 1000.44
